Measured values from patent publication US5041557A, “Furan derivatives” (Laboratorios Vinas S.A., priority 1989, dated 1991).

Legend:
[1] = tested on: histamine induced gastric acid secretion; test: "In vivo" histamine induced gastric acid secretion model in the rat; conditions: Wistar rats, intraperitoneal
Protocol: (§1) As stated above, the formula I compounds have shown a potent antiulcer activity. Thus the inhibition of histamine induced gastric secretion "in vivo" in rats, after intraperitoneal administration of these zinc-furan compounds at dose levels of 0.5; 1; 2 and 4 mg/kg reaches pH recovery levels, increasing with the dose, of 100%.
This activity was measured in Wistar rats having a body weight of 240±20 g. An endovenous perfusion of a histamine solution stimulated the gastric secretion producing a drop in the intragastric pH. LV-208 was thereafter administered intraperitoneally and the increase in the gastric pH that this produced was evaluated. An ED50 of 0.8 mg/kg and recovery of 100% at a dose of 4 mg/kg was obtained by a dose-response curve.

[2] = tested on: ethanol induced ulcers (gastric mucous membrane); test: Necrosing agent model: ethanol induced ulcers in the rat; assay type: in vivo; conditions: for mm lesion (lesion index, mm of ulcer) / % inhibition (ulcer inhibition percentage versus control): ethanol, LV-208 100 mg/kg, Rn equimolar dose; for mm lesion (lesion index, mm of ulcer): mean ± error of the mean, control 82.0 ± 10.1, LV-208: p < 0.001 versus control, p < 0.05 versus Rn (t test); for % inhibition (ulcer inhibition percentage versus control): versus control group; for protection against the ethanol induced aggression: rat, equimolar doses of LV-208 and Rn, result in words
Protocol: as §1
Particularly, the antiulcer activity of the compound LV-208 has been studied with evaluation of the secretion inhibiting and gastric mucous membrane protecting activity in the rat.
The activity of LV-208 was compared with the activity of Rn at equimolar doses using the necrosing agent model, ethanol in this case, described by Robert et al. (Gastroenterology, 77: 433, 1979), versus a control group administered excipient.
The following Table gives the lesion indexes (in mm of ulcer) of the three groups studied, as well as the ulcer inhibition percentages of the treated groups versus the control group (mean values±the error of the mean).

SMILES | recovery (gastric pH) ([1]; dose of 4 mg/kg) [%] | ED50 (increase in gastric pH, inhibition of histamine induced gastric acid secretion) ([1]; endovenous histamine perfusion, dose-response curve) [mg/kg] | mm lesion (lesion index, mm of ulcer) [2] [mm] | % inhibition (ulcer inhibition percentage versus control) [2] [%] | protection against the ethanol induced aggression [2]
CNC(=C[N+](=O)[O-])NCCSCc1ccc(CN(C)C)o1.[Cl][Zn][Cl] [LV-208] | 100 | 0.8 | 4.8 ± 1.8 | 94.1 | practically complete protection
CNC(=C[N+](=O)[O-])NCCSCc1ccc(CN(C)C)o1 [Rn, N,N-dimethyl-5-(2-(1-methylamino-2-nitrovinylamino)ethylthiomethyl)furfurylamine, reference compound] | – | – | 40.6 ± 15.0 | 50.5 | discreet protection
